Read-outs that look alike come from different tables or passages of the source.
Key:
[1] = Extrapolation to humans of the PK parameter values observed in dogs; type: in vivo; conditions: human, for a body weight of 64 kg in humans, extrapolated from dogs, read-out: Vdss
Excerpt: As the pharmacokinetic profiles, i.e., the pharmacokinetic parameter values, are identical in humans and dogs, just as in all […] animals, it is possible to extrapolate to humans the PK parameter values observed in dogs.

[2] = Stability in acidic gastric medium; type: physicochemical
[3] = Stability of the plasma extract in the injection solvent at about +4° C.; type: physicochemical, human; conditions: for Deviation T0 + 24 h/T0: stored on an autosampler
Experimental: The plasma extracts will be analyzed repeatedly during the validation period in order to check for possible degradation of the compounds during storage in the solvent at about +4° C. The evaluation of stability is based on the back-calculated concentrations, which should be within ±15% (except for LOQ±20%), and an acceptable chromatographic peak shape.

[4] = cited from earlier work
[5] = Stability of melatonin in frozen human plasma during freeze-thaw cycles (HPLC-MS/MS); type: in vitro ADME; conditions: human plasma samples stored at about −20° C.
Experimental: Between each cycle, the samples will be maintained under storage temperature conditions (about −20° C.) identical to those used for normal analysis of the samples.

For `COc1ccc2[nH]c3c(c2c1)CCN=C3C` [6-Methoxyharmalan, 6-methoxy-1-methyl-3,4-dihydro-β-carboline], the Vd ([1]; plasma, intravenous) was 960 L.

In the case of `C=C1c2[nH]c3ccc(OC)cc3c2CCN1C(C)=O` [Valentonin, 2-acetyl-6-methoxy-1-methylene-3,4-dihydro-β-carboline], the “Stability in acidic gastric medium” value [2] is reported as “completely hydrolyzed in acidic gastric medium”, the “Stability in acidic gastric medium” value ([2]; listed as VLT) is reported as “completely degraded in acidic gastric medium” and the Vd ([1]; in vivo) is reported as 320 L.

With `COc1ccc2[nH]cc(CCNC(C)=O)c2c1` [melatonin] the “Deviation T0 + 24 h/T0” value ([3]; 2 pg/ml) was 1.65%, the “Deviation T0 + 24 h/T0” value ([3]; 200 pg/ml) was 3.33% and the “Time sample extracts were stable in the injection solvent” value ([3]; injection vials stored at about +4° C., after the first injection) was “at least 24 hours”. For the same molecule, the “Maximum plasma concentrations observed from 1 a.m. onwards, mean value” ([4]; 12 older subjects) was 45.6 pg/mL, the “Maximum plasma concentrations observed from 1 a.m. onwards, mean value” ([4]; 12 young subjects) was 54.5 pg/mL and the “Effect of freeze-thaw cycles on stability” value [5] was “no effect on the stability”.

From patent US10744122B2, “Transdermal therapeutic system containing valentonin and use thereof as a medicament” (Soeur Josefa Menendez, priority 2015, dated 2020)
